Laboratory results taken from ChEMBL document CHEMBL1141167, “Antitumor activity of new substituted 3-(5-imidazo[2,1-b]thiazolylmethylene)-2-indolinones and study of their effect on the cell cycle” (2005).
Values joined by “and” are separate entries in the source; they are usually repeats but may differ in a detail not shown here. Equal entries are not always repeated.

What was measured:
CNS cell [1] = assay: Growth inhibitory concentration dissolved in DMSO against human CNS cell line at 10E-4 M concentration; type: functional
Colon cell [2] = assay: Total growth inhibition of human Colon cell line at 10E-4 M concentration; type: functional; parameters: unit not given here
NSCLC [3] = assay: Total growth inhibition of human NSCLC cell line at 10E-4 M concentration; type: functional
Breast carcinoma cell [4] = assay: Total growth inhibition of human Breast cell line at 10E-4 M concentration; type: functional
[5] = test system: Panel NCI-60 (60 carcinoma cell lines); assay: Total growth inhibition of human MG-MID cell line at 10E-4 M concentration; type: functional
Ovarian carcinoma cell [6] = assay: Total growth inhibition of human Ovarian cell line at 10E-4 M concentration; type: functional
Leukemia cell [7] = assay: Total growth inhibition of human Leukemia cell line at 10E-4 M concentration; type: functional
Melanoma cell [8] = assay: Total growth inhibition of human Melanoma cell line at 10E-4 M concentration; type: functional
Prostate cell [9] = assay: Total growth inhibition of human Prostate cell line at 10E-4 M concentration; type: functional
Prostate cell [10] = assay: Growth inhibitory concentration dissolved in DMSO against human Prostate cell line at 10E-4 M concentration; type: functional
Ovarian carcinoma cell [11] = assay: Growth inhibitory concentration dissolved in DMSO against human Ovarian cell line at 10E-4 M concentration; type: functional
Melanoma cell [12] = assay: Growth inhibitory concentration dissolved in DMSO against human Melanoma cell line at 10E-4 M concentration; type: functional
Colon cell [13] = assay: Growth inhibitory concentration dissolved in DMSO against human Colon cell line at 10E-4 M concentration; type: functional
NSCLC [14] = assay: Growth inhibitory concentration dissolved in DMSO against human NSCLC cell line at 10E-4 M concentration; type: functional; parameters: unit not given here
Renal cell = assay: Growth inhibitory concentration dissolved in DMSO against human Renal cell line at 10E-4 M concentration; type: functional; parameters: unit not given here
Breast carcinoma cell [15] = assay: Growth inhibitory concentration dissolved in DMSO against human Breast cell line at 10E-4 M concentration; type: functional
[16] = test system: Panel NCI-60 (60 carcinoma cell lines); assay: Growth inhibitory concentration dissolved in DMSO against human MG-MID cell line at 10E-4 M concentration; type: functional
CNS cell [17] = assay: Cytotoxic effect dissolved in DMSO against CNS cell line at 10E-4 M concentration; type: functional, Homo sapiens
Colon cell [18] = assay: Cytotoxic effect dissolved in DMSO against Colon cell line at 10E-4 M concentration; type: functional, Homo sapiens
NSCLC [19] = assay: Cytotoxic effect dissolved in DMSO against NSCLC cell line at 10E-4 M concentration; type: functional, Homo sapiens
[20] = test system: Panel NCI-60 (60 carcinoma cell lines); assay: Cytotoxic effect dissolved in DMSO against MG-MID cell line at 10E-4 M concentration; type: functional, Homo sapiens
Leukemia cell [21] = assay: Cytotoxic effect dissolved in DMSO against Leukemia cell line at 10E-4 M concentration; type: functional, Homo sapiens
Melanoma cell [22] = assay: Cytotoxic effect dissolved in DMSO against Melanoma cell line at 10E-4 M concentration; type: functional, Homo sapiens
HT-29 [23] = assay: Percentage of Cells after administration of compound dissolved in DMSO (10e-5 M) towards colon adenocarcinoma cell line HT-29 in G2/M Phase after 24 Hours of Treatment [control = 12.8]; type: functional, Homo sapiens
HT-29 [24] = assay: Percentage of Cells after administration of compound dissolved in DMSO (10e-6 M) towards colon adenocarcinoma cell line HT-29 in G2/M Phase after 24 Hours of Treatment [control = 12.8]; type: functional, Homo sapiens
HT-29 [25] = assay: Percentage of Cells after administration of compound dissolved in DMSO (10e-7M) towards colon adenocarcinoma cell line HT-29 in G2/M Phase after 24 Hours of Treatment [control = 12.8]; type: functional, Homo sapiens
HT-29 [26] = assay: Percentage of Cells after administration of compound dissolved in DMSO (10e-8 M) towards colon adenocarcinoma cell line HT-29 in G2/M Phase after 24 Hours of Treatment [control = 12.8]; type: functional, Homo sapiens
HT-29 [27] = assay: Percentage of Cells after administration of compound dissolved in DMSO (10e-4 M) towards colon adenocarcinoma cell line HT-29 in G2/M Phase after 24 Hours of Treatment [control = 12.8]; type: functional, Homo sapiens

Cc1cn2c(/C=C3/C(=O)Nc4ccc(O)cc43)c(C)nc2s1
pGI50 (-log GI50, M) (CNS cell [1]): 5.41 | TGI (Colon cell [2]): 4.35 and 4.5 | TGI (NSCLC [3]): 4.36 | TGI (Breast carcinoma cell [4]): 4.66 | TGI [5]: 4.44 | TGI (Ovarian carcinoma cell [6]): 4.09 | TGI (Leukemia cell [7]): 5.11 | TGI (Melanoma cell [8]): 4.5 | TGI (Prostate cell [9]): 4.42 | pGI50 (negative log molar GI50) (Prostate cell [10]): 5.52 | pGI50 (negative log of GI50 in M) (Ovarian carcinoma cell [11]): 5.16 | pGI50 (-log molar GI50) (Melanoma cell [12]): 5.41 | pGI50 (negative log of molar GI50) (Colon cell [13]): 5.78 | GI50 (NSCLC [14]): 5.4 | GI50 (Renal cell): 5.3 | pGI50 (-log GI50, M) (Breast carcinoma cell [15]): 5.56 | GI50 [16]: 5.48 | LC50 (CNS cell [17]): 4.02 | LC50 (Colon cell [18]): 4.03 | LC50 (NSCLC [19]): 4.02 | LC50 [20]: 4.05 | LC50 (Leukemia cell [21]): 4.47 | LC50 (Melanoma cell [22]): 4.08 | Activity (HT-29 [23]): 72.7% | Activity (HT-29 [24]): 13.4% | Activity (HT-29 [25]): 13.6% | Activity (HT-29 [26]): 12.2% | Activity (HT-29 [27]): 75.2%
